In patent US20240327412A1, “FACTOR XIIA INHIBITORS” (KALVISTA PHARMACEUTICALS LIMITED, priority 2021, published 2024):

Each compound was assayed against T1, Human Factor XIIa (Homo sapiens, UniProt P00748) (assay: Determination of FXIIa inhibition (fluorogenic substrate H-DPro-Phe-Arg-AFC, IC50 assay)). Details: substrate at Km concentration, 25° C.; category scale; read-out: Human FXII IC50 (nm).
T1 construct: Proteolytic cleavage of FXII to heavy and light chains of FXIIa dramatically increases catalytic activity; purchased Enzyme Research Laboratories
T1 sequence (P00748 373-615 limits assumed): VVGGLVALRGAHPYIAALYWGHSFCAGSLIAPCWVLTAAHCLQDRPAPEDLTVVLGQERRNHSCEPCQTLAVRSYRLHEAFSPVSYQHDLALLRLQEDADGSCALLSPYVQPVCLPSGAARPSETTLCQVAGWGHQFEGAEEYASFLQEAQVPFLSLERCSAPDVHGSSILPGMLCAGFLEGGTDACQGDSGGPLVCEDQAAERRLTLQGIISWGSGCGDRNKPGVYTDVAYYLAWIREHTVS
T1 sequence (P00748 20-372 partner limits assumed): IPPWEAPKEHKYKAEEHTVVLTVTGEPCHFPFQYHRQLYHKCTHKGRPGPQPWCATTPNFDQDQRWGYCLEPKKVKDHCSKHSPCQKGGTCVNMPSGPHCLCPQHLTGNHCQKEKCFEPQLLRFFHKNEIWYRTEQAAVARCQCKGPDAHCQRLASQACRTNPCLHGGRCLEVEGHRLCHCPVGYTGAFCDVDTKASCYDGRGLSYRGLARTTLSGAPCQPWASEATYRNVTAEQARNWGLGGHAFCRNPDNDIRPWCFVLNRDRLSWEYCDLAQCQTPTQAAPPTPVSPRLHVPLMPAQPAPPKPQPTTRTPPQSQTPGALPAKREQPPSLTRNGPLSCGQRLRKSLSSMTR
Format: biochemical
Method in brief: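 Human FXIIa incubated at 25° C. with fluorogenic H-DPro-Phe-Arg-AFC at its Km concentration plus varying compound levels. Linear fluorescence increase over 5 min taken as % activity; IC50 is concentration halving uninhibited activity.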

Compound | IC50 [µM]
Cc1cnc2cc(OCC34CCOC(CNc5cccc6c(N)nccc56)(C3)C4)ccn12 [Example 10930, N5-((5-(((3-methylimidazo[1,2-a]pyridin-7-yl)oxy)methyl)-2-oxabicyclo[3.1.1]heptan-1-yl)methyl)isoquinoline-1,5-diamine] | 0.01 to 0.1
Nc1nccc2c(NCC34CC(Cn5ccnc5)(CO3)C4)cccc12 [Example 6646, N5-((4-((1H-imidazol-1-yl)methyl)-2-oxabicyclo[2.1.1]hexan-1-yl)methyl)isoquinoline-1,5-diamine] | 40 to 100
Nc1nccc2c(NCC34CC(COc5ccc6c(c5)C(=O)NC6)(CO3)C4)cccc12 [Example 6642, 6-((1-(((1-aminoisoquinolin-5-yl)amino)methyl)-2-oxabicyclo[2.1.1]hexan-4-yl)methoxy)isoindolin-1-one] | 0.1 to 0.3
Nc1nccc2c(NCC34CC(COc5ccc6c(c5)CCNC6=O)(CO3)C4)cccc12 [Example 6637, 6-((1-(((1-aminoisoquinolin-5-yl)amino)methyl)-2-oxabicyclo[2.1.1]hexan-4-yl)methoxy)-3,4-dihydroisoquinolin-1(2H)-one] | 0.1 to 0.3
Nc1nccc2c(NCC34CC(COc5cc6nccn6cn5)(CO3)C4)cccc12 [Example 6623, N5-((4-((imidazo[1,2-c]pyrimidin-7-yloxy)methyl)-2-oxabicyclo[2.1.1]hexan-1-yl)methyl)isoquinoline-1,5-diamine] | 3 to 10

Other lines, results leading:

IC50 [µM] | Compound
0.01 to 0.1 | Cn1ccc(OCC23CN(C(=O)OCc4ccccn4)C(CNc4cccc5c(N)nccc45)(C2)C3)cc1=O [Example 12021, pyridin-2-ylmethyl 1-(((1-aminoisoquinolin-5-yl)amino)methyl)-4-(((1-methyl-2-oxo-1,2-dihydropyridin-4-yl)oxy)methyl)-2-azabicyclo[2.1.1]hexane-2-carboxylate]
0.3 to 1 | Cn1ccc(OCC23CC(CNc4cccc5c(N)nccc45)(CN2c2nc4ccccc4o2)C3)cc1=O [Example 13018, 4-[[4-[[(1-aminoisoquinolin-5-yl)amino]methyl]-2-(1,3-benzoxazol-2-yl)-2-azabicyclo[2.1.1]hexan-1-yl]methoxy]-1-methylpyridin-2-one]
1 to 3 | COc1cc(OCC23CCOC(CNc4cccc5c(N)nccc45)(C2)C3)ccn1 [Example 10944, N5-((5-(((2-methoxypyridin-4-yl)oxy)methyl)-2-oxabicyclo[3.1.1]heptan-1-yl)methyl)isoquinoline-1,5-diamine]
0.01 to 0.1 | Cn1ccc(OCC23CN(C(=O)OCc4ccccc4Cl)C(CNc4cccc5c(N)nccc45)(C2)C3)cc1=O [Example 12023, 2-chlorobenzyl 1-(((1-aminoisoquinolin-5-yl)amino)methyl)-4-(((1-methyl-2-oxo-1,2-dihydropyridin-4-yl)oxy)methyl)-2-azabicyclo[2.1.1]hexane-2-carboxylate]
0.3 to 1 | CC(C)n1ccc(OCC23CCOC(CNc4cccc5c(N)nccc45)(C2)C3)cc1=O [Example 10934, 4-((1-(((1-aminoisoquinolin-5-yl)amino)methyl)-2-oxabicyclo[3.1.1]heptan-5-yl)methoxy)-1-isopropylpyridin-2(1H)-one]
0.01 to 0.1 | Cn1ccc(OCC23CN(C(=O)Cc4cccc5[nH]ccc45)C(CNc4cccc5c(N)nccc45)(C2)C3)cc1=O [Example 12040, 4-((2-(2-(1H-indol-4-yl)acetyl)-1-(((1-aminoisoquinolin-5-yl)amino)methyl)-2-azabicyclo[2.1.1]hexan-4-yl)methoxy)-1-methylpyridin-2(1H)-one]
0.01 to 0.1 | Cn1ccc(OCC23CN(S(=O)(=O)CCc4ccccc4)C(CNc4cccc5c(N)nccc45)(C2)C3)cc1=O [Example 12014, 4-[[1-[[(1-aminoisoquinolin-5-yl)amino]methyl]-2-(2-phenylethylsulfonyl)-2-azabicyclo[2.1.1]hexan-4-yl]methoxy]-1-methylpyridin-2-one]
